Columns and labels:
Assay in all cases: combination Emax (second highest fraction inhibited in the dose matrix, 72 h); higher = more inhibition; extreme values may be limits of the assay
KS-1 (Glioblastoma) = test system: KS-1 (Glioblastoma)
Summary of the method: (§1)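 Cell lines grown in DMEM/F12 or RPMI with 10% FBS were plated in 1536-well plates and held 24 hours at 37°C, 5% CO2 before 72 hours of exposure to two-drug dose matrices, with DMSO typically at 0.2%. CellTiter-Glo 2.0 luminescence gave viability, which was converted to inhibition. Vehicle wells were set to 0 and blank wells to 1. Combination Emax is the second-highest inhibition in the matrix, and Bliss excess is the observed combination effect minus the expected EA + EB − EA·EB, where EA and EB are the single-agent effects.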

[1] = test system: OVCAR-5 (Ovarian Carcinoma)
Summary of the method: as §1

[2] = test system: NCI-H1568 (Lung Adenocarcinoma)
Summary of the method: as §1

[3] = test system: SW1573 (Lung Adenocarcinoma)
Summary of the method: as §1

[4] = test system: FTC-133 (Thyroid Gland Carcinoma)
Summary of the method: as §1

[5] = test system: HeLa (Cervical Carcinoma)
Summary of the method: as §1

NCI-H2722 (Mesothelioma) = test system: NCI-H2722 (Mesothelioma)
Summary of the method: as §1

[6] = test system: SNU-449 (Hepatocellular Carcinoma)
Summary of the method: as §1

[7] = test system: KMRC-20 (Kidney Carcinoma)
Summary of the method: as §1

LOXIMVI (Melanoma) = test system: LOXIMVI (Melanoma)
Summary of the method: as §1

EW-11 (Ewing's Sarcoma) = test system: EW-11 (Ewing's Sarcoma)
Summary of the method: as §1

[8] = test system: SAS (Oral Cavity Carcinoma)
Summary of the method: as §1

[9] = test system: LNZTA3WT4 (Low Grade Glioma)
Summary of the method: as §1

[10] = test system: LS-123 (Colorectal Carcinoma)
Summary of the method: as §1

[11] = test system: CAL-33 (Oral Cavity Carcinoma)
Summary of the method: as §1

[12] = test system: SW1710 (Bladder Carcinoma)
Summary of the method: as §1

[13] = test system: KYAE-1 (Esophageal Adenocarcinoma)
Summary of the method: as §1

CAL-72 (Osteosarcoma) = test system: CAL-72 (Osteosarcoma)
Summary of the method: as §1

[14] = test system: HuCCT1 (Biliary Tract Carcinoma)
Summary of the method: as §1

[15] = test system: LCLC-97TM1 (Non-Small Cell Lung Carcinoma)
Summary of the method: as §1

SMILES | combination Emax (KS-1 (Glioblastoma)) | combination Emax [1] | combination Emax [2] | combination Emax [3] | combination Emax [4] | combination Emax [5] | combination Emax (NCI-H2722 (Mesothelioma)) | combination Emax [6] | combination Emax [7] | combination Emax (LOXIMVI (Melanoma)) | combination Emax (EW-11 (Ewing's Sarcoma)) | combination Emax [8] | combination Emax [9] | combination Emax [10] | combination Emax [11] | combination Emax [12] | combination Emax [13] | combination Emax (CAL-72 (Osteosarcoma)) | combination Emax [14] | combination Emax [15]
Cc1cc2ncnn2cc1Nc1ncc2c(n1)n(C1CCOCC1)c(=O)n2C [AZD7648] + O=C(c1cc(Cc2n[nH]c(=O)c3ccccc23)ccc1F)N1CCN(C(=O)C2CC2)CC1 [Olaparib] (first compound max 10 µM, 7x7, partner max 10 µM) | 0.162 | 0.231 | 0.212 | 0.243 | 0.259 | 0.22 | 0.225 | 0.0839 | 0.282 | 0.479 | 0.582 | 0.213 | 0.0958 | 0.297 | 0.243 | 0.0781 | 0.0816 | 0.322 | 0.185 | 0.199
Cc1nc(Nc2ncc(C(=O)Nc3c(C)cccc3Cl)s2)cc(N2CCN(CCO)CC2)n1 [Dasatinib] + CC(=O)Nc1cccc(-n2c(=O)n(C3CC3)c(=O)c3c(Nc4ccc(I)cc4F)n(C)c(=O)c(C)c32)c1 [Trametinib] (first compound max 2 µM, 7x7, partner max 1 µM) | 0.641 | 0.905 | 0.668 | 0.18 | 0.261 | 0.241 | 0.487 | 0.691 | 0.57 | 1 | 0.157 | 0.713 | 0.329 | 0.928 | 0.629 | 0.77 | 0.0573 | 0.545 | 0.772 | 0.904
C[C@@H](c1ccc2nccn2c1)n1nnc2ncc(-c3cnn(C)c3)nc21 [Savolitinib] + CC1(C)CCC(CN2CCN(c3ccc(C(=O)NS(=O)(=O)c4ccc(NCC5CCOCC5)c([N+](=O)[O-])c4)c(Oc4cnc5[nH]ccc5c4)c3)CC2)=C(c2ccc(Cl)cc2)C1 [Venetoclax] (first compound max 1 µM, 7x7, partner max 1 µM) | 0.152 | 0.0951 | 0.0767 | 0.052 | 0.17 | 0.147 | 0.159 | 0.157 | 0.148 | 0.232 | 0.213 | 0.138 | 0.162 | 0.148 | 0.154 | 0.0997 | 0.0925 | 0.181 | 0.107 | 0.0631
Cc1cc2ncnn2cc1Nc1ncc2c(n1)n(C1CCOCC1)c(=O)n2C [AZD7648] + C=CCn1c(=O)c2cnc(Nc3ccc(N4CCN(C)CC4)cc3)nc2n1-c1cccc(C(C)(C)O)n1 [AZD1775] (first compound max 10 µM, partner max 1 µM) | 0.425 | 0.412 | 0.453 | 0.328 | 0.633 | 0.636 | 0.327 | 0.333 | 0.53 | 0.668 | 0.599 | 0.734 | 0.717 | 0.641 | 0.864 | 0.408 | 0.574 | 0.649 | 0.692 | 0.781
COc1nnc2ccc(N3CCC(c4ccc(OCCN5CCN(C)C(=O)[C@H]5C)cc4)CC3)nn12 [AZD5153] + CN(CC[C@H](CSC1=CC=CC=C1)NC2=C(C=C(C=C2)S(=O)(=O)NC(=O)C3=CC=C(C=C3)N4CCC(CC4)[C@H](C5=CC=CC=C5C6=CC=C(C=C6)Cl)O)S(=O)(=O)C(F)(F)F)CCO [AZD4320] (first compound max 1 µM, 7x7, partner max 1 µM) | – | – | 0.266 | 0.61 | 0.909 | 0.433 | 0.774 | – | 0.545 | – | – | – | – | – | 0.343 | – | – | – | – | 0.726
CN(CCO)CC[C@H](CSc1ccccc1)Nc1ccc(S(=O)(=O)NC(=O)c2ccc(N3CCC([C@@H](O)c4ccccc4-c4ccc(Cl)cc4)CC3)cc2)cc1S(=O)(=O)C(F)(F)F [AZD4320] + C[C@@H](Nc1cc(F)cc(F)c1)c1cc(C(=O)N(C)C)cc2c(=O)cc(N3CCOCC3)oc12 [AZD8186] (first compound max 1 µM, 7x7, partner max 3 µM) | 0.486 | 0.351 | 0.344 | 0.577 | 0.803 | 0.359 | 0.555 | 0.313 | 0.381 | 0.507 | 0.938 | 0.77 | 0.247 | – | 0.714 | 0.373 | 0.387 | 0.487 | 0.35 | 0.343
CN(CCO)CC[C@H](CSc1ccccc1)Nc1ccc(S(=O)(=O)NC(=O)c2ccc(N3CCC([C@@H](O)c4ccccc4-c4ccc(Cl)cc4)CC3)cc2)cc1S(=O)(=O)C(F)(F)F [AZD4320] + CCN(CCO)CCCOc1ccc2c(Nc3cc(CC(=O)Nc4cccc(F)c4)[nH]n3)ncnc2c1 [AZD2811] (first compound max 1 µM, 7x7, partner max 1 µM) | 0.464 | – | 0.248 | 0.62 | 0.681 | 0.192 | 0.401 | 0.154 | 0.256 | 0.443 | 0.865 | 0.105 | 0.122 | – | 0.853 | 0.154 | 0.496 | 0.373 | 0.136 | 0.366
N#Cc1cnc(Nc2cc(NC[C@H]3CNCCO3)c(C(F)(F)F)cn2)cn1 [SRA737] + C=CCn1c(=O)c2cnc(Nc3ccc(N4CCN(C)CC4)cc3)nc2n1-c1cccc(C(C)(C)O)n1 [AZD1775] (first compound max 10 µM, partner max 1 µM) | 0.499 | 0.762 | – | – | – | – | – | 0.562 | – | 0.562 | 0.603 | 0.824 | 0.91 | 0.722 | – | 0.644 | 0.114 | 0.88 | 0.812 | –
CN(CCO)CC[C@H](CSc1ccccc1)Nc1ccc(S(=O)(=O)NC(=O)c2ccc(N3CCC([C@@H](O)c4ccccc4-c4ccc(Cl)cc4)CC3)cc2)cc1S(=O)(=O)C(F)(F)F [AZD4320] + Cc1cc2ncnn2cc1Nc1ncc2c(n1)n(C1CCOCC1)c(=O)n2C [AZD7648] (first compound max 1 µM, 7x7, partner max 10 µM) | 0.319 | 0.17 | 0.22 | 0.104 | 0.491 | 0.0576 | 0.159 | 0.166 | 0.157 | 0.343 | 0.829 | 0.118 | 0.132 | – | 0.363 | 0.131 | 0.279 | 0.382 | 0.26 | 0.203
CC(=O)c1c(C)c2cnc(Nc3ccc(N4CCNCC4)cn3)nc2n(C2CCCC2)c1=O [Palbociclib] + CN(CC[C@H](CSC1=CC=CC=C1)NC2=C(C=C(C=C2)S(=O)(=O)NC(=O)C3=CC=C(C=C3)N4CCC(CC4)[C@H](C5=CC=CC=C5C6=CC=C(C=C6)Cl)O)S(=O)(=O)C(F)(F)F)CCO [AZD4320] (first compound max 10 µM, 7x7, partner max 1 µM) | – | – | 0.515 | 0.255 | 0.582 | 0.117 | 0.283 | – | 0.25 | – | – | – | – | – | 0.364 | – | – | – | – | 0.252
CN(CCO)CC[C@H](CSc1ccccc1)Nc1ccc(S(=O)(=O)NC(=O)c2ccc(N3CCC([C@@H](O)c4ccccc4-c4ccc(Cl)cc4)CC3)cc2)cc1S(=O)(=O)C(F)(F)F [AZD4320] + C[C@@H]1COCCN1C2=NC(=NC(=C2)C3(CC3)[S@](=N)(=O)C)C4=C5C=CNC5=NC=C4 [AZD6738] (first compound max 1 µM, 7x7, partner max 10 µM) | 0.68 | 0.842 | 0.522 | 0.555 | 0.947 | 0.717 | 0.503 | 0.19 | 0.721 | 0.892 | 0.957 | 0.902 | 0.804 | – | 0.964 | 0.705 | 0.51 | 0.932 | 0.765 | 0.87
N#Cc1cnc(Nc2cc(NC[C@H]3CNCCO3)c(C(F)(F)F)cn2)cn1 [SRA737] + CCc1c2c(nc3ccc(O)cc13)-c1cc3c(c(=O)n1C2)COC(=O)[C@]3(O)CC [SN-38] (first compound max 10 µM, 7x7, partner max 0.3 µM) | 0.458 | 0.784 | – | – | – | – | – | 0.704 | – | 0.859 | 0.682 | 1 | 0.84 | 0.773 | – | 0.676 | 0.313 | 0.91 | 0.847 | –
N#Cc1cnc(Nc2cc(NC[C@H]3CNCCO3)c(C(F)(F)F)cn2)cn1 [SRA737] + O=c1[nH]cc(F)c(=O)[nH]1 [5-Fluorouracil] (first compound max 10 µM, 7x7, partner max 20 µM) | 0.281 | 0.538 | – | – | – | – | – | 0.293 | – | 0.41 | 0.5 | 0.456 | 0.815 | 0.414 | – | 0.217 | 0.23 | 0.51 | 0.839 | –

Reference: the supplement of paper PMC11061612
